Test system: MRP-1 mRNA
Experiment: MRP-1 mRNA content in duodenal biopsies from healthy volunteers before and after application of rifampicin
Format: in vivo, human
Settings: before (A) vs after (B) application of rifampicin, paired T-test p<0.001
Text: FIG. 3: Diagram 1A and 1B represent the correlation of the genotype (wt/wt: 1; wt/mut and mut/mut:2) with MRP-1 mRNA content in duodenal biopsies from healthy volunteers derived from two independent experiments, before (A) and after (B) application of rifampicin. The p-value of the statistical evaluation (Kruskal-Wallis-Test), which result in a genotyp/phenotype correlation is p=0.086. […] Thus, the differences in the MRP-1 mRNA content are based on interindividual differences. The statistical analyses were performed using the computer program SPSS 10.0 (SPSS, Chicago, USA).
Functional polymorphisms in the MRP-1 gene (see tables in examples 2 and 4) affect the transport activity and subsequently the levels of drugs which are substrates of MRP-1. […] Three different patient collectives, two show side effects during drug therapy and one for which the MRP-1 mRNA levels had been defined, were analyzed to determine whether MRP-1 polymorphisms correlate with transporter activity and subsequently with alterations in drug activities and side effects. […] For this purpose, the 3 collectives (collective 1: samples with nephrotoxicities after cisplatin therapy; collective 2: liver and kidney side effects; collective 3: samples with defined high or low MRP-1 mRNA levels) were screened for all MRP-1 gene fragments, in which the new SNP's could be detected. […]

SMILES: CO[C@H]1/C=C/O[C@@]2(C)Oc3c(C)c(O)c4c(O)c(c(/C=N/N5CCN(C)CC5)c(O)c4c3C2=O)NC(=O)/C(C)=C\C=C\[C@H](C)[C@H](O)[C@@H](C)[C@@H](O)[C@@H](C)[C@H](OC(C)=O)[C@@H]1C [rifampicin]
- effect on MRP-1 mRNA expression: no effect
